According to patent publication US20200345268A1, “ISOTOPIC BIOMARKERS OF ORGANIC ACIDEMIAS” (The United States of America, as represented by the …, priority 2017, published 2020):

Experiments:
[1] = tested on: Mut^−/−; Tg^INS-MCK-Mut mice; settings: mouse, in vivo; for Mut^+/− Oxidation Rate / Mut^−/− Oxidation Rate: ip
Experimental: To further assess transgene function, the in vivo oxidative capacity of Mut^−/−; Tg^INS-MCK-Mut mice was measured through detecting metabolism of numerous 1-^13C labeled fatty acids to ^13CO2 via the Kreb's Cycle.
The in vivo effects of hepatic Mut deficiency were also assessed by measuring the oxidation of 1-^13C-methionine (FIG. 1I) and 1-^13C-glycine (FIG. 1J). These labels reflect hepatic mitochondrial function and the activity of the glycine cleavage system, both known to be impaired in MMA patients.
In Vivo Stable Isotope Oxidation Studies: Stable isotope studies were performed in 4 Mut−/−; Tg^INS-MCK-Mut and 4 control littermates. Closed circuit, constant volume respiratory chambers were used to collect and measure enrichment of ^13CO2 in mice, as described previously (Chandler and Venditti, 2009 and 2010, Manoli et al 2013). Mice received IP injections with tracer amounts (10 μl/g of [10 mg/ml] tracer solution) of 99.9% ^13C-isotopomers. Aliquots of air were removed every 5-10 min, while CO2 was continuously monitored. ^13CO2 enrichment was measured by isotope ratio mass spectroscopy (Metabolic Solutions, Nashua, N.H.). […] Cumulative percentage of total isotopomer dose metabolized was subsequently calculated, using the formula: Percentage of dose metabolized=total ^13C excreted [mmol/dose (mmol)×100%].
The following 1-C labeled stable isotopes were used: ^13C Sodium Propionate, ^13C-Methionine, ^13C-Glycine, ^13C-Pyruvate, ^13C-Octanoate, ^13C-α-Ketoisocaproic Acid, ^13C-Leucine, ^13C-Acetate, ^13C-Phenylalanine. Stable isotopomers were purchased from Cambridge Isotope Laboratories. Variables were compared for each substrate and time point using a two-sided unpaired t-test and considered statistically significant at p<0.05.
These studies were conducted using N=5 mice with MMA (Mut^−/−; Tg^INS-MCK-Mut mutants) and N=5 sex matched littermates (controls). Each mouse was injected with the labels depicted in Table 3 and the oxidation rates and kinetics of ^13C/^12C CO2 enrichment were analyzed.

[2] = Test drink solution stability; assay type: physicochemical; settings: 1 mg/ml in tap water
[3] = tested on: methylmalonic acidemia patients and healthy volunteers; settings: human, in vivo
Excerpt: Percent Dose Oxidized at each time point=CO2 production rate×Σ(APE (t)/(mmol C^13 administered)×100, where CO2 production rate was the one measured by the indirect calorimetry on the same day just prior to the isotope study.
The test cohort was comprised of 41 patients with MMA (26 mut0, aged 3-37 years, 6 mut-, aged 9-30 years, and 9 cblA, aged 4-41 years), 8 healthy volunteers, and 8 heterozygote parents of affected individuals. Within the affected group, 12 individuals had previously received a liver (LT), kidney (KT), combined liver-kidney (LKT), or partial (graft) liver-kidney (pLKT) transplant (2 LT, 3 KT, 6 LKT, 1 pLKT).
A metabolic cart (ParvoMedics TrueOne2400 Sandy, Utah) was used to measure subject O2 consumption (VO2), CO2 production (VCO2), and resting energy expenditure (REE) at supine posture for 25-35 minutes. Seven of the healthy volunteers were tested three times over a two-month period to evaluate inter- and intra-individual variability.
A dose of 0.5 mg/kg (or 0.5 ml/kg) body weight (BW) was administered to the study subjects orally or through a G-tube as a bolus over no more than 2 minutes, followed by similar amount of water consumption. […] Measurements of the isotopic ratio (^13C/^12C) in expired gas were determined by isotope ratio mass spectrometry (Metabolic Solutions, Nashua, N.H.).

SMILES | Mut^+/− Oxidation Rate [1] | Mut^−/− Oxidation Rate [1] | Cumulative % of total dose metabolized, Controls, mean (SD) [1] | Cumulative % of total dose metabolized, Mutants, mean (SD) [1] | also measured
NC[13C](=O)O [1-^13C-glycine] | 0.14 +/− 0.003 (n = 3) μmol/g/hour | 0.07 +/− 0.007 (n = 4) μmol/g/hour | – | – | oxidation of label (release of label) [1]: impaired ability to release label
CC(C)C[13C@H](N)C(=O)O [L-2-^13C-Leucine] | – | – | 3.68 (2.34) % | 3.32 (0.85) % | –
C[13C](=O)[O-].[Na+] [1-^13C-acetate, Sodium 1-^13C-Acetate] | 69.5 +/− 17.7 (n = 5) μmol/g/hour | 88.2 +/− 26.5 (n = 5) μmol/g/hour | 38.02 (11.79) % | 42.23 (14.32) % | –
CC(C)CC(=O)[13C](=O)[O-].[Na+] [Sodium 1-^13C-α-Ketoisocaproic Acid] | – | – | 33.95 (3.66) % | 24.00 (12.95) % | –
C[13C](=O)C(=O)O [Sodium 1-^13C-Pyruvate] | – | – | 52.16 (17.06) % | 52.99 (9.85) % | –
CCC(=O)O [1-^13C-propionate, sodium 1-^13C-propionate] | – | – | – | – | maximal time for maintaining solution stability [2]: two; time within which the majority of the label is oxidized [3]: 15 to 30 min
CSCC[C@H](N)[13C](=O)O [1-^13C-methionine] | 11.5 +/− 3.4 (n = 4) μmol/g/hour | 6.5 +/− 2.5 (n = 4) μmol/g/hour | – | – | oxidation of label (release of label) [1]: impaired ability to release label
CC(C)[13C@H](N)C(=O)O [2-^13C-Valine] | – | – | 4.41 (2.63) % | 5.15 (2.19) % | –
CC(C)C[C@H](N)[13C](=O)O [L-1-^13C-Leucine] | – | – | 13.54 (1.50) % | 12.44 (3.10) % | –
N[C@@H](C[13c]1ccccc1)C(=O)O [L-1-^13C-Phenylalanine] | – | – | 10.75 (7.38) % | 5.71 (2.74) % | –
